The text below walks through data of patent US10081628B2, “Apoptosis-inducing agents for the treatment of cancer and immune and autoimmune diseases” (AbbVie Inc., priority 2013, dated 2018).

Where two headings read alike, the source gives them in different places.

In one experiment the test system is lymphocytes. The experiment in a line: Lymphocyte reduction in C57BL/6 mice. The following applies: Mus musculus, ip. Format: in vivo. On the procedure:
An experiment was performed to evaluate the effect of Bcl-2 selective/Bcl-xL sparing compounds on immune cells and platelets, as evaluated in C57Bl/6 mice. Mice were treated four days with compounds (doses of 30 mg/kg, administered by intraperitoneal injection every day) and cell numbers were measured with a Cell Dyn hematology analyzer 24 hours after the first and last doses. Exposure of the compound (area under the curve) was calculated by using time points of 1, 6, 10 and 24 hours after the last dose.

The next experiment has as its system RS4;11 cells. Kind of experiment: RS4;11 cell viability assay (CellTiter Glo). The following applies: 10% human serum, 48 hours. It counts as cell-based. An excerpt:
The acute lymphoblastic leukemia (ALL) cell line RS4;11 was used as the primary human cell line to assess the cellular activity of Bcl-2 selective agents in vitro and their efficacy in vivo. Previous studies have shown by BH3 profiling, a mitochondrial assay that classifies blocks in the intrinsic apoptotic pathway, that RS4;11 cells were highly dependant on BCL-2 for survival and sensitive to the Bcl-2 family member inhibitor ABT-737 (Blood, 2008, Vol. 111, 2300-2309).
RS4;11 cells were cultured in RPMI-1640 supplemented with 2 mM L-glutamine, 10% FBS, 1 mM sodium pyruvate, 2 mM HEPES, 1% penicillin/streptomycin (Invitrogen), 4.5 g/L glucose and maintained at 37 C containing 5% CO2. To test for the cellular activity of compounds in vitro, cells were treated at 50,000 cells per well in 96-well microtiter plates in the presence of 10% human serum for 48 hours in a humidified chamber with 5% CO2. Cell cytotoxicity EC50 values were assessed using CellTiter Glo (Promega) according to the manufacturer's recommendations. The EC50 values were determined as a percentage of viable cells following treatment compared to the untreated control cells.

In a further experiment the target is GST-Bcl-2 (Homo sapiens, UniProt P10415). The experiment in a line: TR-FRET Bcl-2 binding assay (F-Bak peptide probe). The following applies: GST-Bcl-2 1 nM, F-Bak peptide probe 100 nM, Tb-anti-GST 1 nM; Wang's equation; '<' = below limit of detection. The protocol: Determination of the utility of compounds of this invention as binders to and inhibitors of anti-apoptotic Bcl-2 proteins was performed using the Time Resolved-Fluorescence Resonance Energy Transfer (TR-FRET) Assay. Tb-anti-GST antibody was purchased from Invitrogen (Catalog No. PV4216).
GST-Bcl-2, sequence (P10415 whole entry): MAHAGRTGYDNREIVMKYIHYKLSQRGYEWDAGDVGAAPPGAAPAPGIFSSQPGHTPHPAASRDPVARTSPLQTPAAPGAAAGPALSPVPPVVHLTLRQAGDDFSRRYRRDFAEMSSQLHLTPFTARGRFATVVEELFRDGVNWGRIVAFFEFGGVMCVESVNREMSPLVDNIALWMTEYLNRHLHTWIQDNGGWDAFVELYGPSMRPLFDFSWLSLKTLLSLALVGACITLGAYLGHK
Representative compounds were serially diluted in dimethyl sulfoxide (DMSO) starting at 50 μM (2× starting concentration; 10% DMSO) and 10 μL were transferred into a 384-well plate. The samples are then mixed on a shaker for 1 minute and incubated for an additional 3 hours at room temperature. For each assay, the probe/antibody and protein/probe/antibody were included on each assay plate as negative and positive controls, respectively. Fluorescence was measured on the Envision (Perkin Elmer) using a 340/35 nm excitation filter and 520/525 (F-Bak peptide) and 495/510 nm (Tb-labeled […] antibody) emission filters. Dissociation constants (Ki) are shown in TABLE 2 below and were determined using Wang's equation (Wang Z.-X., An Exact Mathematical Expression For Describing Competitive Binding Of Two Different Ligands To A Protein Molecule. FEBS Lett. 1995, 360:111-4).
The samples were then mixed on a shaker for 1 minute and incubated for an additional 3 hours at room temperature. For each assay, the probe/antibody and protein/probe/antibody were included on each assay plate as negative and positive controls, respectively. Fluorescence was measured on the Envision (Perkin Elmer) using a 340/35 nm excitation filter and 520/525 (F-Bak peptide) and 495/510 nm (Tb-labeled anti-Histidine antibody) emission filters.
Inhibition constants (Ki) for compounds were determined using Wang's equation (Wang Zx. An Exact Mathematical Expression For Describing Competitive Binding Of Two Different Ligands To A Protein Molecule. FEBS Lett. 1995, 360:111-4).
The inhibition constant (Ki) is the dissociation constant of an enzyme-inhibitor complex or a protein/small molecule complex, wherein the small molecule is inhibiting binding of one protein to another protein or peptide. So a large Ki value indicates a low binding affinity and a small Ki value indicates a high binding affinity. […] The compounds are therefore expected to have utility in treatment of diseases during which anti-apoptotic Bcl-2 protein is expressed. Biological Data
A general note: In TR-FRET formats the signal depends on donor and acceptor labels being close together.

Setting [1] is: 30 mg/kg intraperitoneal every day for four days, 24 hours after the last dose, read-out: Lymphocyte reduction % inh. day 4.
[2] abbreviates: 30 mg/kg intraperitoneal every day, 24 hours after the first dose, read-out: Lymphocyte reduction % inh. day 1.

By EC50 is commonly meant the midpoint of the concentration-response curve. In general, Ki refers to a measure of affinity in units of concentration, obtained from inhibition or displacement. Consider `CC1(C)CCC(CN2CCN(c3ccc(C(=O)NS(=O)(=O)c4ccc(NC[C@@H]5COCCO5)c([N+](=O)[O-])c4)c(Oc4cnc5[nH]ccc5c4)c3)CC2)=C(c2ccc(Cl)cc2)C1` [Example 1, 4-(4-{[2-(4-chlorophenyl)-4,4-dimethylcyclohex-1-en-1-yl]methyl}piperazin-1-yl)-N-[(4-{[(2R)-1,4-dioxan-2-ylmethyl]amino}-3-nitrophenyl)sulfonyl]-2-(1H-pyrrolo[2,3-b]pyridin-5-yloxy)benzamide], for which the inhibition at 30 mg/kg in the experiment with lymphocytes (setting [1]) and in the experiment with lymphocytes (setting [2]) was 41% in each case. Moreover, the EC50 in the experiment on RS4;11 cells is 5.3 nM. Also, the Ki on GST-Bcl-2 is less than 0.1 nM.

As for `CC1(C)CCC(CN2CCN(c3ccc(C(=O)NS(=O)(=O)c4ccc(NCC5(C)CCOCC5)c([N+](=O)[O-])c4)c(Oc4cnc5[nH]ccc5c4)c3)CC2)=C(c2ccc(Cl)cc2)C1` [Example 21, 4-(4-{[2-(4-chlorophenyl)-4,4-dimethylcyclohex-1-en-1-yl]methyl}piperazin-1-yl)-N-[(4-{[(4-methyltetrahydro-2H-pyran-4-yl)methyl]amino}-3-nitrophenyl)sulfonyl]-2-(1H-pyrrolo[2,3-b]pyridin-5-yloxy)benzamide], the inhibition at 30 mg/kg with lymphocytes (setting [1]) and with lymphocytes (setting [2]) was 61% each time. The compound further yielded an EC50 in the experiment with RS4;11 cells of 19 nM. Besides, the Ki on GST-Bcl-2 is less than 0.1 nM.

`CC1(C)CCC(CN2CCN(c3ccc(C(=O)NS(=O)(=O)c4ccc(NC[C@H]5C[C@@H](C#N)C5)c([N+](=O)[O-])c4)c(Oc4cnc5[nH]ccc5c4)c3)CC2)=C(c2ccc(Cl)cc2)C1` [Example 42, 4-(4-{[2-(4-chlorophenyl)-4,4-dimethylcyclohex-1-en-1-yl]methyl}piperazin-1-yl)-N-[(4-{[(cis-3-cyanocyclobutyl)methyl]amino}-3-nitrophenyl)sulfonyl]-2-(1H-pyrrolo[2,3-b]pyridin-5-yloxy)benzamide] gave an EC50 in the experiment with RS4;11 cells of 56 nM. The compound further registered an inhibition constant (Ki) on GST-Bcl-2 of less than 0.1 nM.

For `CC(=O)N1CCC(CNc2ccc(S(=O)(=O)NC(=O)c3ccc(N4CCN(CC5=C(c6ccc(Cl)cc6)CC(C)(C)CC5)CC4)cc3Oc3cnc4[nH]ccc4c3)cc2[N+](=O)[O-])CC1` [Example 47, N-[(4-{[(1-acetylpiperidin-4-yl)methyl]amino}-3-nitrophenyl)sulfonyl]-4-(4-{[2-(4-chlorophenyl)-4,4-dimethylcyclohex-1-en-1-yl]methyl}piperazin-1-yl)-2-(1H-pyrrolo[2,3-b]pyridin-5-yloxy)benzamide], a half-maximal effect with RS4;11 cells (EC50) was put at 14 nM. The compound also came in with a Ki at GST-Bcl-2 of less than 0.1 nM.

Turning to `COC1(CNc2ccc(S(=O)(=O)NC(=O)c3ccc(N4CCN(CC5=C(c6ccc(Cl)cc6)CC(C)(C)CC5)CC4)cc3Oc3cnc4[nH]ccc4c3)cc2[N+](=O)[O-])COCCOC1` [Example 40, 4-(4-{[2-(4-chlorophenyl)-4,4-dimethylcyclohex-1-en-1-yl]methyl}piperazin-1-yl)-N-[(4-{[(6-methoxy-1,4-dioxepan-6-yl)methyl]amino}-3-nitrophenyl)sulfonyl]-2-(1H-pyrrolo[2,3-b]pyridin-5-yloxy)benzamide], the EC50 with RS4;11 cells came out at 76 nM. Besides, the Ki at GST-Bcl-2 is less than 0.1 nM.

As to `CC1(C)CCC(CN2CCN(c3ccc(C(=O)NS(=O)(=O)c4ccc(NC[C@H]5CC[C@]6(CCCO6)CC5)c([N+](=O)[O-])c4)c(Oc4cnc5[nH]ccc5c4)c3)CC2)=C(c2ccc(Cl)cc2)C1` [Example 4, 4-(4-{[2-(4-chlorophenyl)-4,4-dimethylcyclohex-1-en-1-yl]methyl}piperazin-1-yl)-N-[(3-nitro-4-{[(5S,8S)-1-oxaspiro[4.5]dec-8-ylmethyl]amino}phenyl)sulfonyl]-2-(1H-pyrrolo[2,3-b]pyridin-5-yloxy)benzamide], the EC50 in the experiment on RS4;11 cells worked out at 57 nM. On GST-Bcl-2, the Ki was less than 0.1 nM.

`CC1(C)CCC(CN2CCN(c3ccc(C(=O)NS(=O)(=O)c4ccc(NCC5CCN(S(C)(=O)=O)CC5)c([N+](=O)[O-])c4)c(Oc4cnc5[nH]ccc5c4)c3)CC2)=C(c2ccc(Cl)cc2)C1` [Example 30, 4-(4-{[2-(4-chlorophenyl)-4,4-dimethylcyclohex-1-en-1-yl]methyl}piperazin-1-yl)-N-{[4-({[1-(methylsulfonyl)piperidin-4-yl]methyl}amino)-3-nitrophenyl]sulfonyl}-2-(1H-pyrrolo[2,3-b]pyridin-5-yloxy)benzamide] came in with an EC50 in the experiment on RS4;11 cells of 27 nM. Also, the Ki on GST-Bcl-2 is less than 0.1 nM.

`CC1(C)CCC(CN2CCN(c3ccc(C(=O)NS(=O)(=O)c4ccc(NCC5CCS(=O)(=O)CC5)c([N+](=O)[O-])c4)c(Oc4cnc5[nH]ccc5c4)c3)CC2)=C(c2ccc(Cl)cc2)C1` [Example 43, 4-(4-{[2-(4-chlorophenyl)-4,4-dimethylcyclohex-1-en-1-yl]methyl}piperazin-1-yl)-N-[(4-{[(1,1-dioxidotetrahydro-2H-thiopyran-4-yl)methyl]amino}-3-nitrophenyl)sulfonyl]-2-(1H-pyrrolo[2,3-b]pyridin-5-yloxy)benzamide] yielded an EC50 in the experiment on RS4;11 cells of 31 nM. In addition, at GST-Bcl-2, the inhibitory constant (Ki) was less than 0.1 nM.

For the compound `CC1(C)CCC(CN2CCN(c3ccc(C(=O)NS(=O)(=O)c4ccc(NCC5(C)COC5)c([N+](=O)[O-])c4)c(Oc4cnc5[nH]ccc5c4)c3)CC2)=C(c2ccc(Cl)cc2)C1` [Example 38, 4-(4-{[2-(4-chlorophenyl)-4,4-dimethylcyclohex-1-en-1-yl]methyl}piperazin-1-yl)-N-[(4-{[(3-methyloxetan-3-yl)methyl]amino}-3-nitrophenyl)sulfonyl]-2-(1H-pyrrolo[2,3-b]pyridin-5-yloxy)benzamide], in the experiment on RS4;11 cells, the EC50 was determined as 30 nM. In addition, the inhibitory constant (Ki) on GST-Bcl-2 was less than 0.1 nM.

`CC1(C)CCC(CN2CCN(c3ccc(C(=O)NS(=O)(=O)c4ccc(NCC5CCOCC5)c([N+](=O)[O-])c4)c(Oc4cnc5[nH]ccc5c4)c3)CC2)=C(c2ccc(Cl)c(Cl)c2)C1` [Example 53, 4-(4-{[2-(3,4-dichlorophenyl)-4,4-dimethylcyclohex-1-en-1-yl]methyl}piperazin-1-yl)-N-({3-nitro-4-[(tetrahydro-2H-pyran-4-ylmethyl)amino]phenyl}sulfonyl)-2-(1H-pyrrolo[2,3-b]pyridin-5-yloxy)benzamide]: the half-maximal effective concentration (EC50) in the experiment on RS4;11 cells was found to be 46 nM. In addition, at GST-Bcl-2, affinity was put at a Ki of 0.2 nM.

In the case of `CC1(C)CCC(CN2CCN(c3ccc(C(=O)NS(=O)(=O)c4ccc(NCC5CCN(S(=O)(=O)C(F)(F)F)CC5)c([N+](=O)[O-])c4)c(Oc4cnc5[nH]ccc5c4)c3)CC2)=C(c2ccc(Cl)cc2)C1` [Example 29, 4-(4-{[2-(4-chlorophenyl)-4,4-dimethylcyclohex-1-en-1-yl]methyl}piperazin-1-yl)-N-({3-nitro-4-[({1-[(trifluoromethyl)sulfonyl]piperidin-4-yl}methyl)amino]phenyl}sulfonyl)-2-(1H-pyrrolo[2,3-b]pyridin-5-yloxy)benzamide], the EC50 with RS4;11 cells came out at 57 nM. In addition, the Ki at GST-Bcl-2 is less than 0.1 nM.

`CC1(C)CCC(CN2CCN(c3ccc(C(=O)NS(=O)(=O)c4ccc(NCC5CC[S+]([O-])CC5)c([N+](=O)[O-])c4)c(Oc4cnc5[nH]ccc5c4)c3)CC2)=C(c2ccc(Cl)cc2)C1` (stereo not shown) [Example 32, 4-(4-{[2-(4-chlorophenyl)-4,4-dimethylcyclohex-1-en-1-yl]methyl}piperazin-1-yl)-N-[(3-nitro-4-{[(1-oxidotetrahydro-2H-thiopyran-4-yl)methyl]amino}phenyl)sulfonyl]-2-(1H-pyrrolo[2,3-b]pyridin-5-yloxy)benzamide] registered an EC50 with RS4;11 cells of 43 nM. This compound also showed an inhibition constant (Ki) at GST-Bcl-2 of less than 0.1 nM.
